# Patent US7569568B2, “Cytokine inhibitors” (Boehringer Ingelheim Pharmaceuticals, Inc., priority 2002, dated 2009)
row,Structure (SMILES),melting point
1,"COC(=O)c1cn(-c2cc(C(=O)Nc3cc(C(C)(C)C)cc(NS(C)(=O)=O)c3OC)ccc2C)nn1 [Example 1, 1-[5-(5-tert-butyl-3-methanesulfonylamino-2-methoxy-phenylcarbamoyl)-2-methyl-phenyl]-1H-1,2,3-triazole-4-carboxylic acid methyl ester]",198 °C
2,"COC(=O)c1cn(-c2cc(C(=O)Nc3cc(C(C)(C)C)cc(NS(C)(=O)=O)c3OC)ccc2Cl)nn1 [Example 8, 1-[5-(5-tert-butyl-3-methanesulfonylamino-2-methoxyphenyl-carbamoyl)-2-chloro-phenyl]-1H-1,2,3-triazole-4-carboxylic acid methyl ester]",251 to 252 °C (dec.)
3,"COC(=O)c1nnn(-c2cc(C(=O)Nc3cc(C(C)(C)C)cc(NS(C)(=O)=O)c3OC)ccc2C)c1N [Example 9, 5-amino-1-[5-(5-tert-butyl-3-methanesulfonylamino-2-methoxy-phenylcarbamoyl)-2-methyl-phenyl]-1H-1,2,3-triazole-4-carboxylic acid methyl ester]",204 to 205 °C
4,"COC(=O)c1cn(-c2cc(C(=O)Nc3cc(C(C)(C)C)cc(NS(C)(=O)=O)c3OC)cc(C)c2C)nn1 [Example 16, 1-[5-(5-tert-butyl-3-methanesulfonylamino-2-methoxy-phenylcarbamoyl)-2,3-dimethyl-phenyl]-1H-1,2,3-triazole-4-carboxylic acid methyl ester]",199 °C
5,"COc1c(NC(=O)c2ccc(C)c(-n3cc(C(=O)NCc4ccccc4)nn3)c2)cc(C(C)(C)C)cc1NS(C)(=O)=O [Example 24, 1-[5-(5-tert-butyl-3-methanesulfonylamino-2-methoxy-phenylcarbamoyl)-2-methyl-phenyl]-1H-1,2,3-triazole-4-carboxylic acid benzylamide]",205 to 207 °C
6,"COc1c(NC(=O)c2cc(C)c(C)c(-n3cc(C(=O)NCCN4CCOCC4)nn3)c2)cc(C(C)(C)C)cc1NS(C)(=O)=O [Example 28, 1-[5-(5-tert-butyl-3-methanesulfonylamino-2-methoxy-phenylcarbamoyl)-2,3-dimethyl-phenyl]-1H-1,2,3-triazole-4-carboxylic acid (2-morpholin-4-yl-ethyl)-amide]",206 to 209 °C (dec.)
7,"COc1c(NC(=O)c2ccc(C)c(-n3cc(C(N)=O)nn3)c2)cc(C(C)(C)C)cc1NS(C)(=O)=O [Example 66, 1-[5-(5-tert-butyl-3-methanesulfonylamino-2-methoxyphenyl-carbamoyl)-2-methyl-phenyl]-1H-1,2,3-triazole-4-carboxylic acid amide]",> 250 °C
8,"COc1c(NC(=O)c2ccc(C)c(-n3nnc(C(=O)NCC(C)(C)C)c3N)c2)cc(C(C)(C)C)cc1NS(C)(=O)=O [Example 68, 5-amino-1-[5-(5-tert-butyl-3-methanesulfonylamino-2-methoxy-phenylcarbamoyl)-2-methyl-phenyl]-1H-1,2,3-triazole-4-carboxylic acid (2,2-dimethyl-propyl)-amide]",189 to 193 °C
